Laboratory results from patent US10774052B2, “Heteroaryl compounds and uses thereof” (Celgene CAR LLC, priority 2013, dated 2020).
Entries after “also recorded” stand apart in the source; their conditions may differ. Read-outs that look alike come from different tables or passages of the source.

Columns and labels:
Assay type in all cases: cell-based
[1] = system: pFGFR4 in Huh7 cells; test: FGFR4 signaling, pFGFR4 (Huh); MSD (Method B); settings: Homo sapiens
[2] = system: pFGFR4 in MDA-MB-453 cells; test: Washout experiment (duration of action on pFGFR4); settings: 1000-2000 nM for 1 hr, washed, up to 24 hr
Method: The cells were allowed to settle down for 4 hrs and were then maintained in low-serum (0.1% FBS) media overnight.
The following morning, the media was removed and the cells were treated with 1000-2000 nM of test compound in low-serum media for 1 hr. The cells were washed free of test compound (3×) with PBS (Invitrogen). One set of cells was immediately lysed as indicated above as the 0 hr time point. The remaining cells were incubated with the appropriate complete growth media (10-20% FBS) for 1, 2, 4, 8, 16 (in certain circumstances) and 24 hr. DMSO (0.5%) controls were collected at all time points.

[3] = system: pFGFR4 in MDA-MB-453 cells; test: FGFR4 signaling, pFGFR4 (MDA); Western blot (Method A), MSD (Method B), ELISA (Method C); settings: Homo sapiens
[4] = Huh-7, Huh7 cells, read-out: Signaling EC50 (nM) pFGFR4 (Huh)
[5] = MDA-MB-453 cells, Method B (MSD) for signaling EC50 determination

| SMILES | EC50 [1, 4] [nM] | duration of action against pFGFR4 signalling post washout [2] | EC50 [3, 5] [nM] | EC50 ([1]; Huh-7, read-out: Signaling EC50 (nM) pFGFR4 (Huh)) [nM] | EC50 ([3]; MDA-MB-453 cells, Method A (Western blot) for signaling EC50 determination) [nM] | EC50 ([3]; MDA-MB-453, MDA-MB-453 cells, Method B (MSD) for signaling EC50 determination) [nM] |
| --- | --- | --- | --- | --- | --- | --- |
| C=CC(=O)Nc1ccccc1Nc1ncc2c(n1)N(Cc1cccc(NC(=O)CC)c1)C(=O)N(c1c(Cl)c(OC)cc(OC)c1Cl)C2 [Compound I-1] | < 100 | prolonged duration of action; also recorded: has PDA | < 100 |  |  |  |
| C=CC(=O)NC1CCCCC1Nc1ncc2c(n1)N(Cc1cscn1)C(=O)N(c1c(Cl)c(OC)cc(OC)c1Cl)C2 (racemic) [Compound I-69] |  | prolonged inhibition of autophosphorylation of FGFR4; also recorded: prolonged duration of action | < 100 | 101 to 500 |  |  |
| CCC(=O)Nc1cccc(CN2C(=O)N(c3c(Cl)c(OC)cc(OC)c3Cl)Cc3cnc(Nc4ccccc4NC(=O)CC)nc32)c1 [Compound I-234] |  | does not show prolonged duration of action; also recorded: does not have PDA |  |  | 101 to 500 |  |
| C=CC(=O)Nc1ccccc1Nc1ncc2c(n1)N(Cc1ccnc(N)c1)C(=O)N(c1cc(OC)cc(OC)c1)C2 [Compound I-87] | < 100 |  | < 100 |  |  |  |
| C=CC(=O)Nc1ccccc1Nc1ncc2c(n1)N(C)C(=O)N(c1c(Cl)cccc1Cl)C2 [Compound I-83] | 101 to 500 |  | 101 to 500 |  |  |  |
| C=CC(=O)Nc1ccccc1Nc1ncc2c(n1)N(C1CCCNC1)C(=O)N(c1cc(OC)cc(OC)c1)C2 (centres unmarked) [Compound I-43] | > 1000 |  | 501 to 999 |  |  |  |
| C=CC(=O)Nc1ccccc1Nc1ncc2c(n1)N(CC(F)F)C(=O)N(c1c(F)c(OC)cc(OC)c1F)C2 [Compound I-116] | < 100 |  | < 100 |  |  |  |
| C=CC(=O)Nc1cc(C)ccc1Nc1ncc2c(n1)N(C)C(=O)N(c1cc(OC)cc(OC)c1)C2 [Compound I-41] | 101 to 500 |  | 101 to 500 |  |  |  |
| C=CC(=O)Nc1ccccc1Nc1ncc2c(n1)N(Cc1cn[nH]c1)C(=O)N(c1cc(OC)cc(OC)c1)C2 [Compound I-121] | < 100 |  | < 100 |  |  |  |
| C=CC(=O)Nc1ccccc1Nc1ncc2c(n1)N(CCOC)C(=O)N(c1cc(OC)cc(OC)c1)C2 [Compound I-59] | 101 to 500 |  | 101 to 500 |  |  |  |
| C=CC(=O)Nc1ccccc1Nc1ncc2c(n1)N(CC(O)CO)C(=O)N(c1cc(OC)cc(OC)c1)C2 (centres unmarked) [Compound I-33] | > 1000 |  | 101 to 500 |  |  |  |
| C=CC(=O)Nc1cc(C(=O)NC2CCN(C)CC2)ccc1Nc1ncc2c(n1)N(C)C(=O)N(c1cc(OC)cc(OC)c1)C2 [Compound I-151] | > 1000 |  | 501 to 999 |  |  |  |
| C=CC(=O)Nc1ccccc1Nc1ncc2c(n1)N(Cc1cccnc1)C(=O)N(c1cc(OC)cc(OC)c1)C2 [Compound I-44] | < 100 |  | < 100 |  |  |  |
| C=CC(=O)NC1CN(C)CC1Nc1ncc2c(n1)N(C)C(=O)N(c1c(Cl)c(OC)cc(OC)c1Cl)C2 (racemic) [Compound I-138] | 101 to 500 |  |  |  |  | 101 to 500 |
| C=CC(=O)Nc1ccc(C(F)(F)F)cc1Nc1ncc2c(n1)N(C)C(=O)N(c1cc(OC)cc(OC)c1)C2 [Compound I-50] | 101 to 500 |  | 101 to 500 |  |  |  |
